Reference: patent publication US9763442B2, “In situ generation of peroxycarboxylic acids at alkaline pH, and methods of use thereof” (priority 2010, dated 2017)

What was measured:
[1] = Coupling of precipitated aqueous POOA by surfactants/hydrotropes; format: physicochemical; settings: 1000 ppm POOA in DI Water
Method: A variety of surfactants were analyzed for coupling and/or dispersion stabilizing of a peroxycarboxylic acid composition generated according to the methods of the invention. In particular, a peroxyoctanoic acid (POOA) composition in deionized water produced according to the invention was analyzed for coupling and/or dispersion stabilization using the dispersing agents set forth in Table 14A.
Given the very limited water solubility of POOA in its protonated form, acidification of the alkaline perhydrolysis solutions of the same causes immediate precipitation and rapid phase separation. In this example various surfactants and hydrotropes were evaluated for their ability to couple the POOA. In Table 14A it can be seen that the most efficient agents for coupling an already precipitated solution of POOA were samples I and II.

[2] = Dispersion stability of acidified POOA solutions with dispersing agents; format: physicochemical; settings: acidified POOA solution, 10,000 ppm H2SO4; oil sheen = fail
Method: The SLS, LAS and SOA dispersing agents were then further examined for efficacy in stabilizing and/or dispersing in 1% or lower sulfuric acid solutions. […] Solution 13 was made as 1 through 12 with the addition of 50 mL of 5 grain hard water to the aliquot of alkaline reaction solution followed by swirling with the surface aliquot and then additional 50 mL of 5 grain hard water, followed within about 5 seconds by 50 mL of 5 grain 2% sulfuric acid and swirled. Solution 14 was made by direct addition of 1% sulfuric acid (5 grain) without pre-dilution, but after moments of swirling with SLS aliquot. All concentrations are shown in ppm. […] The appearance of an oil sheen was regarded as a pass or fail.

## CCCCCCCCCCCCOS(=O)(=O)[O-].[Na+] [I, Sodium Lauryl Sulfate]
[1]
  Amount of (B) Required for Coupling: 0.64 g/200 g aq POOA

## CCCCCCCCS(=O)(=O)[O-].[Na+] [VII, Sodium octanesulfonate]
[1]
  Amount of (B) Required for Coupling: 6.60 g/200 g aq POOA

## CCCCC(CC)COC(=O)CC(C(=O)OCC(CC)CCCC)S(=O)(=O)[O-].[Na+] (centres unmarked) [X, Sodium dioctyl Sulfosuccinates]
[1]
  Amount of (B) Required for Coupling: >2.0 g/200 g aq POOA

## Alkyl Polyglycosides [VI]
[1]
  Amount of (B) Required for Coupling: 2.46 g/200 g aq POOA

## Linear Aryl Sulfonate [II]
[1]
  Amount of (B) Required for Coupling: 0.65 g/200 g aq POOA
[1]; listed as LAS
  Amount of (B) Required for Coupling: 0.64 g/200 g aq POOA
[2]
  oil sheen at 23 h: minimal surface oil

## Sodium Lauryl Ether Sulfate [III]
[1]
  Amount of (B) Required for Coupling: >0.94 g/200 g aq POOA
